Among the data in PubChem BioAssay AID328 (DTP/NCI, 2004) are T/C values, retold here.

The test system of the assay is BDF1 mice, P388 leukemia ip, median survival T/C. Nature of the assay: NCI In Vivo Anticancer Drug Screen. Data for tumor model P388 Leukemia (intraperitoneal) in B6D2F1 (BDF1) mice. Conditions: endpoint: median survival time, higher = longer survival. In short, it runs like this: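 Compound-treated tumour-bearing mice were compared with vehicle-treated controls. Survival was recorded, and the value is the treated-group measurement divided by the control-group measurement (T/C).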

[1] abbreviates: dose: 100.0 mg/kg/injection, schedule: Q04DX003 (ip), vehicle: saline with Tween-80.
Where [2] appears, read: dose: 200.0 mg/kg/injection, schedule: Q04DX003 (ip), vehicle: saline with Tween-80.
[3] abbreviates: dose: 400.0 mg/kg/injection, schedule: Q04DX003 (ip), vehicle: saline with Tween-80.
The mark [4] stands for this setting: dose: 25.0 mg/kg/injection, schedule: Q04DX003 (ip), vehicle: saline with Tween-80.
The mark [5] stands for this setting: dose: 50.0 mg/kg/injection, schedule: Q04DX003 (ip), vehicle: saline with Tween-80.
[6] abbreviates: dose: 100.0 mg/kg/injection, schedule: Q04DX003 (ip), vehicle: Klucel (hydroxypropylcellulose) (HPC).
The mark [7] stands for this setting: dose: 200.0 mg/kg/injection, schedule: Q04DX003 (ip), vehicle: Klucel (hydroxypropylcellulose) (HPC).
The mark [8] stands for this setting: dose: 400.0 mg/kg/injection, schedule: Q04DX003 (ip), vehicle: Klucel (hydroxypropylcellulose) (HPC).
Where [9] appears, read: dose: 50.0 mg/kg/injection, schedule: Q01DX009 (ip), vehicle: saline with Tween-80.
Where [10] appears, read: dose: 100.0 mg/kg/injection, schedule: Q01DX009 (ip), vehicle: saline with Tween-80.
[11] abbreviates: dose: 200.0 mg/kg/injection, schedule: Q01DX009 (ip), vehicle: saline with Tween-80.
Setting [12] is: dose: 25.0 mg/kg/injection, schedule: Q01DX009 (ip), vehicle: saline with Tween-80.
Setting [13] is: dose: 6.25 mg/kg/injection, schedule: Q01DX009 (ip), vehicle: saline with Tween-80.

SMILES strings stand for the structures. Values joined by “and” are separate entries in the source; they are usually repeats but may differ in a detail not shown here. Equal values may be shown once. Toxic doses and inconclusive results are not listed.

Turning to `Nc1nc(SCC(=O)c2ccccc2)c2[nH]cnc2n1`, the T/C by setting is: (dose: 100.0 mg/kg/injection, schedule: Q01DX009 (ip), vehicle: saline sonified) 115 % of control; under setting [1], 109 % of control; (dose: 200.0 mg/kg/injection, schedule: Q01DX009 (ip), vehicle: saline sonified) 110 % of control; under setting [2], 113 % of control; (dose: 400.0 mg/kg/injection, schedule: Q01DX009 (ip), vehicle: saline sonified) 110 % of control; under setting [3], 118 % of control.

With `Oc1ccccc1O.[O-]c1ccccc1[O-].[O-]c1ccccc1[O-].[O]=[V+2]`, the T/C is, setting by setting: (dose: 9.37 mg/kg/injection, schedule: Q01DX009 (ip), vehicle: saline) 89 % of control; (dose: 9.37 mg/kg/injection, schedule: Q04DX003 (ip), vehicle: saline) 100 % of control; (dose: 18.75 mg/kg/injection, schedule: Q01DX009 (ip), vehicle: saline) 94 % of control; (dose: 18.75 mg/kg/injection, schedule: Q04DX003 (ip), vehicle: saline) 109 % of control; (dose: 24.0 mg/kg/injection, schedule: Q04DX003 (ip), vehicle: saline) 104 % of control; (dose: 24.7 mg/kg/injection, schedule: Q04DX003 (ip), vehicle: saline) 100 % of control. Also, the T/C is, setting by setting: (dose: 37.0 mg/kg/injection, schedule: Q04DX003 (ip), vehicle: saline) 105 % of control; (dose: 37.5 mg/kg/injection, schedule: Q01DX009 (ip), vehicle: saline) 89 % of control; (dose: 37.5 mg/kg/injection, schedule: Q04DX003 (ip), vehicle: saline) 100 % of control; (dose: 55.0 mg/kg/injection, schedule: Q04DX003 (ip), vehicle: saline) 100 % of control; (dose: 55.5 mg/kg/injection, schedule: Q04DX003 (ip), vehicle: saline) 90 % of control.

As for `O=c1oc2c(c(N(c3ccccc3)c3ccccc3)c1Cl)CSc1ccccc1-2`, the T/C was 100 % of control under setting [4], 93 % of control under setting [5] and 90 % of control under setting [1].

Turning to `C/C(=N\O)c1ccc2ccc3ccccc3c2c1`, the T/C reads like this: (dose: 50.0 mg/kg/injection, schedule: Q04DX003 (ip), vehicle: saline sonified) 104 % of control; (dose: 100.0 mg/kg/injection, schedule: Q04DX003 (ip), vehicle: saline sonified) 104 % of control; (dose: 200.0 mg/kg/injection, schedule: Q04DX003 (ip), vehicle: saline sonified) 100 % of control.

Consider `C[C@@H]1CC2=CC(=O)C=C[C@]2(C)[C@H]2CC[C@@]3(C)[C@@H](CC[C@]3(C)O)[C@H]12`, for which the T/C was 95 % of control (dose: 50.0 mg/kg/injection, schedule: Q01DX009 (sc), vehicle: steriod suspending solution); 88 % of control (dose: 100.0 mg/kg/injection, schedule: Q01DX009 (ip), vehicle: Klucel (hydroxypropylcellulose) (HPC)); 90 % of control (dose: 100.0 mg/kg/injection, schedule: Q01DX009 (sc), vehicle: steriod suspending solution); 91 % of control under setting [6]; 100 % of control (dose: 200.0 mg/kg/injection, schedule: Q01DX009 (ip), vehicle: Klucel (hydroxypropylcellulose) (HPC)); 86 % of control (dose: 200.0 mg/kg/injection, schedule: Q01DX009 (sc), vehicle: steriod suspending solution). In addition, the T/C reads like this: under setting [7], 95 % of control; (dose: 400.0 mg/kg/injection, schedule: Q01DX009 (ip), vehicle: Klucel (hydroxypropylcellulose) (HPC)) 88 % of control; under setting [8], 91 % of control.

On to `O=C1NS(=O)(=O)c2ccccc21`, for which the T/C was 100 % of control under setting [9], 90 % of control under setting [10] and 103 % of control under setting [11].

Regarding `CCC(CN(C)C)C(=O)c1ccccc1` (stereo not given), the T/C was 100 % of control under setting [4]; 95 % of control under setting [5]; 100 % of control (dose: 100.0 mg/kg/injection, schedule: Q01DX001 (ip), vehicle: saline with Tween-80); 91 % of control and 95 % of control under setting [1]; 100 % of control (dose: 200.0 mg/kg/injection, schedule: Q01DX001 (ip), vehicle: saline with Tween-80).

On to `CCCSCC(C)C`, for which the T/C is, setting by setting: under setting [1], 100 % of control; under setting [2], 109 % of control; under setting [3], 90 % of control.

As for `CCCCCCCCSc1ncnc2nc[nH]c12`, the T/C runs as follows: under setting [10], 108 % of control; under setting [1], 100 % of control; under setting [11], 87 % of control; under setting [2], 100 % of control; (dose: 400.0 mg/kg/injection, schedule: Q01DX009 (ip), vehicle: saline with Tween-80) 108 % of control; under setting [3], 100 % of control.

Turning to `C#CCn1cnc2c(Cl)ncnc21`, the T/C is, setting by setting: (dose: 50.0 mg/kg/injection, schedule: Q01DX009 (ip), vehicle: other) 118 % of control; (dose: 100.0 mg/kg/injection, schedule: Q01DX009 (ip), vehicle: other) 100 % of control; (dose: 100.0 mg/kg/injection, schedule: Q04DX003 (ip), vehicle: saline) 108 % of control; (dose: 200.0 mg/kg/injection, schedule: Q04DX003 (ip), vehicle: saline) 104 % of control; (dose: 400.0 mg/kg/injection, schedule: Q04DX003 (ip), vehicle: saline) 95 % of control.

For the molecule `O=C(O)C(=O)c1ccc(-c2ccccc2)cc1`, the T/C reads like this: under setting [12], 90 % of control; under setting [9], 100 % of control; under setting [10], 113 % of control; (dose: 150.0 mg/kg/injection, schedule: Q01DX009 (ip), vehicle: saline with Tween-80) 110 % of control.

With `CC/C(C)=C1\OC(=O)C(C)C(O)C(Cc2cccnc2)NC(=O)C(NC(=O)c2ncccc2O)C(C)OC1=O` (stereo not given), the T/C reads like this: (dose: 3.13 mg/kg/injection, schedule: Q01DX009 (ip), vehicle: saline with Tween-80) 97 % of control; under setting [13], 106 % of control; (dose: 12.5 mg/kg/injection, schedule: Q01DX009 (ip), vehicle: saline with Tween-80) 103 % of control; under setting [12], 93 % of control.

For `ClC1=C(Cl)C2(Cl)C3C4CC(C5OC45)C3C1(Cl)C2(Cl)Cl` (stereo not given), for the setting “dose: 3.13 mg/kg/injection, schedule: Q01DX009 (ip), vehicle: suspension in saline”, the T/C was 96 % of control.

`N#CSCc1ccc(CSC#N)c(Cl)c1`: the T/C by setting is: (dose: 1.56 mg/kg/injection, schedule: Q01DX009 (ip), vehicle: saline with Tween-80) 118 % of control; under setting [13], 100 % of control.

In the case of `O=C(Nc1ccccc1)N(C(=O)C(F)(F)F)c1ccccc1`, the T/C under setting [9] was 95 % of control, the T/C under setting [10] was 92 % of control and the T/C under setting [11] is 90 % of control.

`CCOC(=O)C(O)(NC(=O)N/N=C/c1ccccc1)C(=O)OCC`: the T/C reads like this: under setting [1], 104 % of control; under setting [2], 112 % of control; under setting [3], 91 % of control.

Turning to `CCCCC(C(=O)OCC)C(CCC1CCCCC1)(C(=O)OCC)C(=O)OCC` (stereo not given), the T/C reads like this: under setting [6], 91 % of control; under setting [7], 87 % of control; under setting [8], 100 % of control.

Consider `CNc1ccccc1O`, for which the T/C runs as follows: under setting [9], 102 % of control; under setting [10], 98 % of control; under setting [11], 95 % of control.

`CCOC(=O)c1cnc(SCc2ccccc2Cl)nc1N1CC1`: the T/C is, setting by setting: (dose: 10.6 mg/kg/injection, schedule: Q01DX009 (ip), vehicle: Klucel (hydroxypropylcellulose) (HPC)) 108 % of control; (dose: 28.05 mg/kg/injection, schedule: Q01DX009 (ip), vehicle: Klucel (hydroxypropylcellulose) (HPC)) 114 % of control; (dose: 63.75 mg/kg/injection, schedule: Q01DX009 (ip), vehicle: Klucel (hydroxypropylcellulose) (HPC)) 152 % of control.
